Laboratory results: ChEMBL document CHEMBL3217528, “Bicyclic imidazole-4-one derivatives: a new class of antagonists for the orphan G protein-coupled receptors GPR18 and GPR55” (Medchemcomm, 2014)

What follows are compounds tested against T1, N-arachidonyl glycine receptor (Homo sapiens) (UniProt Q14330) (assay: Antagonist activity against human GPR18 expressed in CHO cells assessed as reduction in delta9-THC-induced beta-arrestin recruitment at 10 uM by beta-galactosidase enzyme fragment complementation method).
T1 sequence (whole entry): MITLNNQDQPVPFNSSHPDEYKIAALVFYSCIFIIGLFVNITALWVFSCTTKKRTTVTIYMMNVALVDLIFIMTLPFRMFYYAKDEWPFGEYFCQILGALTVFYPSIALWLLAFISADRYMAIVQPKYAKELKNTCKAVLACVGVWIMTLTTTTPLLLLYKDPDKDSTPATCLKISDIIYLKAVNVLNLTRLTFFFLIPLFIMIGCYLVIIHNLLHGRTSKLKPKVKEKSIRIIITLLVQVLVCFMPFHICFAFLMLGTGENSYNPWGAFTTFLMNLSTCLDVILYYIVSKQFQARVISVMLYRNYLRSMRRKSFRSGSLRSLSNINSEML
Assay type: cell-based

| SMILES | inhibition |
| --- | --- |
| O=C1/C(=C/c2c(Cl)cccc2Cl)N=C2SCCCN12 | 0% |
| O=C1/C(=C/c2ccccc2F)N=C2SCCCN12 | 17% |
| O=C1/C(=C/c2ccc(Cl)cc2Cl)N=C2SCCCN12 | 14% |
| CCOC(=O)C1CN2C(=O)C(c3ccccc3)(c3ccccc3)N=C2S1 (centres undefined) | 0% |
| C/C(=C1/N=C2SCCCCN2C1=O)c1ccccc1 | 4% |
| O=C1/C(=C/c2ccc(Cl)cc2)N=C2SCCCN12 | 18% |

The compounds below were run against Cannabinoid receptor 1 (Rattus norvegicus, UniProt P20272) (assay: Displacement of [3H]CP55,940 from CB1 receptor in rat brain cortical membranes).
Cannabinoid receptor 1 (Rattus norvegicus, UniProt P20272), sequence (P20272 whole entry): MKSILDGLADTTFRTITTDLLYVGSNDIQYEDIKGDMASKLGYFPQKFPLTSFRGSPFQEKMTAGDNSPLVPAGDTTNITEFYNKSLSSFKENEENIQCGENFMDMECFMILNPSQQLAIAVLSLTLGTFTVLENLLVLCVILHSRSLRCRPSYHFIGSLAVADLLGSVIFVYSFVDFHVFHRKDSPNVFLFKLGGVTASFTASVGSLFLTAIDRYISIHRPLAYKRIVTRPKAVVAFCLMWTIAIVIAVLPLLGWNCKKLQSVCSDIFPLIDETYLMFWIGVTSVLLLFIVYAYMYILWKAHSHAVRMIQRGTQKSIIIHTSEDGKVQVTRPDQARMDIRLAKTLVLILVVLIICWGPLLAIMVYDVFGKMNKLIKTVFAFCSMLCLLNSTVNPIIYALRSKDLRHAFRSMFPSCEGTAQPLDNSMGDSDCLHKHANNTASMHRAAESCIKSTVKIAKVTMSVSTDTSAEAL
Assay type: cell membranes

| SMILES | Ki |
| --- | --- |
| CCOC(=O)C1CN2C(=O)C(c3ccccc3)(c3ccccc3)N=C2S1 (centres undefined) | > 10 µM |
| C/C(=C1/N=C2SCCCCN2C1=O)c1ccccc1 | > 10 µM |
| O=C1/C(=C/c2ccc(Cl)cc2)N=C2SCCCN12 | > 10 µM |

The compounds below were run against T2, G-protein coupled receptor 55 (Homo sapiens, UniProt Q9Y2T6) (assay: Antagonist activity against human GPR55 expressed in CHO cells assessed as reduction in LPI-induced beta-arrestin recruitment at 10 uM by beta-galactosidase enzyme fragment complementation method).
T2 sequence (Q9Y2T6 whole entry, the tested form may be a part): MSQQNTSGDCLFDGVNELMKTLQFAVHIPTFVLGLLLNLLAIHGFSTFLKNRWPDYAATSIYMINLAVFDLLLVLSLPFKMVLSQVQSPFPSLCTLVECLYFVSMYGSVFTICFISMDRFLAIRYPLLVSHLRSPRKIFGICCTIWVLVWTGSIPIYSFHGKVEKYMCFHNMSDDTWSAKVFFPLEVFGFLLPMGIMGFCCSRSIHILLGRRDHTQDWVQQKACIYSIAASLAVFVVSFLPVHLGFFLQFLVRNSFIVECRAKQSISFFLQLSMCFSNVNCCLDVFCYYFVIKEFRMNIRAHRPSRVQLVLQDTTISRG
Assay type: cell-based

| SMILES | inhibition |
| --- | --- |
| O=C1/C(=C/c2c(Cl)cccc2Cl)N=C2SCCCN12 | 0% |
| CCOC(=O)C1CN2C(=O)C(c3ccccc3)(c3ccccc3)N=C2S1 (centres undefined) | 10% |
| C/C(=C1/N=C2SCCCCN2C1=O)c1ccccc1 | 25% |
| O=C1/C(=C/c2ccc(Cl)cc2)N=C2SCCCN12 | 35% |

Each compound was assayed against T3, Cannabinoid receptor 2 (Homo sapiens, UniProt P34972) (assay: Displacement of [3H]CP55,940 from human recombinant CB2 receptor expressed in HEK293 cells at 10 uM).
T3 sequence (P34972 whole entry): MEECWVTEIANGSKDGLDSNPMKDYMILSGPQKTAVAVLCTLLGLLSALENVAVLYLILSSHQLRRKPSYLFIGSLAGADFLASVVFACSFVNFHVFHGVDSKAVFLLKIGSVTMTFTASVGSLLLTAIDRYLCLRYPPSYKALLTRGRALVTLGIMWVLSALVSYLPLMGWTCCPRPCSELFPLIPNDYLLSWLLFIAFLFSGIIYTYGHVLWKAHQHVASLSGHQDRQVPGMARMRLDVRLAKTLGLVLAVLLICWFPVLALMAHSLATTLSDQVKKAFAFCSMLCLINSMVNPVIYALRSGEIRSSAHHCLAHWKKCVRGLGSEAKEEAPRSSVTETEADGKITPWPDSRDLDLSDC
Assay type: cell-based

| SMILES | inhibition |
| --- | --- |
| O=C1/C(=C/c2c(Cl)cccc2Cl)N=C2SCCCN12 | 4% |
| O=C1/C(=C/c2ccccc2F)N=C2SCCCN12 | 0% |
| O=C1/C(=C/c2ccc(Cl)cc2Cl)N=C2SCCCN12 | 24% |
| CCOC(=O)C1CN2C(=O)C(c3ccccc3)(c3ccccc3)N=C2S1 (centres undefined) | 0% |
| C/C(=C1/N=C2SCCCCN2C1=O)c1ccccc1 | 17% |
| O=C1/C(=C/c2ccc(Cl)cc2)N=C2SCCCN12 | 23% |

What follows are compounds tested against T3, Cannabinoid receptor 2 (assay: Displacement of [3H]CP55,940 from human recombinant CB2 receptor expressed in HEK293 cells).
Assay type: cell-based

| SMILES | Ki |
| --- | --- |
| O=C1/C(=C/c2c(Cl)cccc2Cl)N=C2SCCCN12 | > 10 µM |
| O=C1/C(=C/c2ccccc2F)N=C2SCCCN12 | > 10 µM |
| O=C1/C(=C/c2ccc(Cl)cc2Cl)N=C2SCCCN12 | > 10 µM |
| CCOC(=O)C1CN2C(=O)C(c3ccccc3)(c3ccccc3)N=C2S1 (centres undefined) | > 10 µM |
| C/C(=C1/N=C2SCCCCN2C1=O)c1ccccc1 | > 10 µM |
| O=C1/C(=C/c2ccc(Cl)cc2)N=C2SCCCN12 | > 10 µM |

The compounds below were run against T2, G-protein coupled receptor 55 (assay: Antagonist activity against human GPR55 expressed in CHO cells assessed as reduction in LPI-induced beta-arrestin recruitment by beta-galactosidase enzyme fragment complementation method).
Assay type: cell-based

| SMILES | IC50 |
| --- | --- |
| O=C1/C(=C/c2c(Cl)cccc2Cl)N=C2SCCCN12 | > 10 µM |
| O=C1/C(=C/c2ccccc2F)N=C2SCCCN12 | 5.56 µM |
| O=C1/C(=C/c2ccc(Cl)cc2Cl)N=C2SCCCN12 | 6.76 µM |
| CCOC(=O)C1CN2C(=O)C(c3ccccc3)(c3ccccc3)N=C2S1 (centres undefined) | > 10 µM |
| C/C(=C1/N=C2SCCCCN2C1=O)c1ccccc1 | > 10 µM |
| O=C1/C(=C/c2ccc(Cl)cc2)N=C2SCCCN12 | > 10 µM |

What follows are compounds tested against T4, Cannabinoid receptor 1 (Homo sapiens, UniProt P21554) (assay: Displacement of [3H]CP55,940 from human recombinant CB1 receptor expressed in CHO-K1 cells at 10 uM).
T4 sequence (P21554 whole entry): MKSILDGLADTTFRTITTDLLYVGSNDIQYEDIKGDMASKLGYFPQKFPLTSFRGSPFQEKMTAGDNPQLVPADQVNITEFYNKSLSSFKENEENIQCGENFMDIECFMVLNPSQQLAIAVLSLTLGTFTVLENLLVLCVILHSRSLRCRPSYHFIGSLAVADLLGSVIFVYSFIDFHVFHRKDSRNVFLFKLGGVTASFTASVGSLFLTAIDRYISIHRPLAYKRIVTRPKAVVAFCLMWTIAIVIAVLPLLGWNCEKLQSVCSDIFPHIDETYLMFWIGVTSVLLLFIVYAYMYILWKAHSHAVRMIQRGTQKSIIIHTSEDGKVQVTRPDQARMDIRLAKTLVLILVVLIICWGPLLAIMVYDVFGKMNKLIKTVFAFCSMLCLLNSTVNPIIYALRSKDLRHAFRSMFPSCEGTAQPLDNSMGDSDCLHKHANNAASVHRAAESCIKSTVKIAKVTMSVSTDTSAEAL
Assay type: cell-based

| SMILES | inhibition |
| --- | --- |
| O=C1/C(=C/c2c(Cl)cccc2Cl)N=C2SCCCN12 | 14% |
| O=C1/C(=C/c2ccccc2F)N=C2SCCCN12 | 13% |
| O=C1/C(=C/c2ccc(Cl)cc2Cl)N=C2SCCCN12 | 8% |
| CCOC(=O)C1CN2C(=O)C(c3ccccc3)(c3ccccc3)N=C2S1 (centres undefined) | 2% |
| C/C(=C1/N=C2SCCCCN2C1=O)c1ccccc1 | 10% |
| O=C1/C(=C/c2ccc(Cl)cc2)N=C2SCCCN12 | 25% |

These compounds were tested against T2, G-protein coupled receptor 55 (assay: Agonist activity at human GPR55 expressed in CHO cells assessed as induction of LPI-induced beta-arrestin recruitment by beta-galactosidase enzyme fragment complementation method relative to LPI).
Assay type: cell-based
Design: concentration or dose not given beside the values

| SMILES | Activity |
| --- | --- |
| O=C1/C(=C/c2c(Cl)cccc2Cl)N=C2SCCCN12 | 15% |
| O=C1/C(=C/c2ccccc2F)N=C2SCCCN12 | 0% |
| O=C1/C(=C/c2ccc(Cl)cc2Cl)N=C2SCCCN12 | 0% |
| CCOC(=O)C1CN2C(=O)C(c3ccccc3)(c3ccccc3)N=C2S1 (centres undefined) | 39% |
| C/C(=C1/N=C2SCCCCN2C1=O)c1ccccc1 | 1% |
| O=C1/C(=C/c2ccc(Cl)cc2)N=C2SCCCN12 | 0% |

Each compound was assayed against T5, N-arachidonyl glycine receptor (Homo sapiens, UniProt Q14330) (assay: Antagonist activity against human GPR18 expressed in CHO cells assessed as reduction in delta9-THC-induced beta-arrestin recruitment by beta-galactosidase enzyme fragment complementation method).
T5 sequence (Q14330 whole entry): T1 sequence (whole entry)
Assay type: cell-based

| SMILES | IC50 |
| --- | --- |
| O=C1/C(=C/c2c(Cl)cccc2Cl)N=C2SCCCN12 | > 10 µM |
| O=C1/C(=C/c2ccccc2F)N=C2SCCCN12 | > 10 µM |
| O=C1/C(=C/c2ccc(Cl)cc2Cl)N=C2SCCCN12 | > 10 µM |
| CCOC(=O)C1CN2C(=O)C(c3ccccc3)(c3ccccc3)N=C2S1 (centres undefined) | > 10 µM |
| C/C(=C1/N=C2SCCCCN2C1=O)c1ccccc1 | > 10 µM |
| O=C1/C(=C/c2ccc(Cl)cc2)N=C2SCCCN12 | > 10 µM |

The compounds below were run against T4, Cannabinoid receptor 1 (assay: Displacement of [3H]CP55,940 from human recombinant CB1 receptor expressed in CHO-K1 cells).
Assay type: cell-based

| SMILES | Ki |
| --- | --- |
| O=C1/C(=C/c2c(Cl)cccc2Cl)N=C2SCCCN12 | > 10 µM |
| O=C1/C(=C/c2ccccc2F)N=C2SCCCN12 | > 10 µM |
| O=C1/C(=C/c2ccc(Cl)cc2Cl)N=C2SCCCN12 | > 10 µM |
| CCOC(=O)C1CN2C(=O)C(c3ccccc3)(c3ccccc3)N=C2S1 (centres undefined) | > 10 µM |
| C/C(=C1/N=C2SCCCCN2C1=O)c1ccccc1 | > 10 µM |
| O=C1/C(=C/c2ccc(Cl)cc2)N=C2SCCCN12 | > 10 µM |

These compounds were tested against T1, N-arachidonyl glycine receptor (Homo sapiens) (assay: Agonist activity at human GPR18 expressed in CHO cells assessed as induction of beta-arrestin recruitment by beta-galactosidase enzyme fragment complementation method relative to delta9-THC).
Assay type: cell-based
Design: concentration or dose not given beside the values

| SMILES | Activity |
| --- | --- |
| O=C1/C(=C/c2c(Cl)cccc2Cl)N=C2SCCCN12 | 12% |
| O=C1/C(=C/c2ccccc2F)N=C2SCCCN12 | 6% |
| O=C1/C(=C/c2ccc(Cl)cc2Cl)N=C2SCCCN12 | 0% |
| CCOC(=O)C1CN2C(=O)C(c3ccccc3)(c3ccccc3)N=C2S1 (centres undefined) | 11% |
| C/C(=C1/N=C2SCCCCN2C1=O)c1ccccc1 | 14% |
| O=C1/C(=C/c2ccc(Cl)cc2)N=C2SCCCN12 | 13% |

Each compound was assayed against Cannabinoid receptor 1 (Rattus norvegicus) (UniProt P20272) (assay: Displacement of [3H]CP55,940 from CB1 receptor in rat brain cortical membranes at 10 uM).
Cannabinoid receptor 1 (Rattus norvegicus), sequence (P20272 whole entry): as the sequence (P20272 whole entry) above
Assay type: cell membranes

| SMILES | inhibition |
| --- | --- |
| CCOC(=O)C1CN2C(=O)C(c3ccccc3)(c3ccccc3)N=C2S1 (centres undefined) | 38% |
| C/C(=C1/N=C2SCCCCN2C1=O)c1ccccc1 | 3% |
| O=C1/C(=C/c2ccc(Cl)cc2)N=C2SCCCN12 | 15% |
